Test [1] deals with JAK2 dependent human megakaryoblastic leukemia cell line SET-2. The test is described as follows: Cell proliferation assay (CellTiter-Glo, 72 hours). Type of test: cell-based. The note with it: Homo sapiens, SET-2 cells. An outline of the steps: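 About 5×10^3 SET-2 cells per well, in RPMI-1640 with 10% FBS, were exposed to inhibitor dilutions for 72 hours at 37 °C, 5% CO2. Viability read by CellTiter-Glo luminescence. IC50 from sigmoidal fitting of 8-point dilution curves.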
In general terms: Cellular ATP, detected with luciferase, serves as a proxy for viable cell number.

Test [2] has as its target T1, JAK2 kinase domain (Homo sapiens, UniProt O60674).
T1 construct: commercially available JAK2 kinase domain; purchased Invitrogen, Eugene, Oreg
The test is described as follows: Biochemical assay for inhibitors of JAK kinase activity (JAK2, 33P-γ-ATP/dowex resin). The note with it: JAK2 kinase domain 1 nM, 60 μM ATP. The essentials:
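Human JAK2 (1 nM) phosphorylated peptide BioDBn*306 (64 μM) with 60 μM ATP plus 3 nM 33P-γ-ATP in HEPES pH 7.5/MgCl2/DTT buffer, 60 min at room temperature. Unreacted ATP captured by Dowex resin; supernatant β-counted. IC50 from sigmoidal fit of ten-point 1:3 dilution curves.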

The target in test [3] is T2, Lyn full length (Homo sapiens, UniProt P07948).
T2 construct: The assay has been performed using Lyn full length
The test is described as follows: Biochemical assay for inhibitors of Lyn (Src family) kinase activity. The note with it: Lyn full length 1 nM, 25 μM ATP. An excerpt:
Biochemical Assay for Inhibitors of Lck and Lyn (Src Family) Kinases Activity
Specific Lck and Lyn substrates are trans-phosphorylated by Lck and Lyn kinases in the presence of ATP traced with 33P-γ-ATP. At the end of the phosphorylation reaction, the unreacted ATP, cold and radioactive, is captured by an excess of dowex ion exchange resin that eventually settles by gravity to the bottom of the reaction plate. The supernatant is subsequently withdrawn and transferred into a counting plate that is then evaluated by β-counting.
Lyn Specific Assay Conditions
The assay has been performed using Lyn full length (accession number P07948 of UniProtKB/Swiss-Prot database).
Kinase buffer was composed of 50 mM HEPES pH 7.5 containing 3 mM MgCl2, 1 mM DTT, 3 μM Na3VO4, and 0.2 mg/mL BSA.
The Lyn kinase assay was run with a final enzyme concentration of 1 nM, in the presence of 25 μM ATP, 1.5 nM 33P-γ-ATP and 250 μM of substrate ABI 1 (Aminoacid sequence: EAIYAAPFAKKK—SEQ ID NO: 3). The peptidic substrate was purchased from American Peptide Company (Sunnyvale, Calif.).
For IC50 determination, test compounds are received as a 1 mM solution in 100% DMSO, distributed into 96 well plates: compounds are then plated into the first column of a microtiter plate (A1 to G1), 100 μL/well.
An automated station for serial dilutions (Biomek FX, Beckman) is used for producing 1:3 dilutions in 100% DMSO, from line A1 to A10, and for all the compounds in the column. Moreover, 4-5 copies of daughter plates are prepared by reformatting 5 μL of this first set of 100% DMSO dilution plates into 384 deep well-plates: one of these plates with the serial dilutions of test compounds will be thawed the day of the experiments, reconstituted at a 3× concentration with water and used in the IC50 determination assays. In a standard experiment, the highest concentration (3×) of all compounds is 30 μM, while the lowest one is 1.5 nM. Each 384 well-plate will contain at least one curve of the standard inhibitor staurosporine and reference wells (total enzyme activity vs. no enzymatic activity) for the Z′ and signal to background evaluation.
384-well plates, V bottom (test plates) are prepared with 5 μL of the compound dilution (3×) and then placed onto a PlateTrak 12 robotized station (Perkin Elmer; the robot has one 384-tip pipetting head for starting the assay plus one 96-tip head for dispensing the resin) together with one reservoir for the Enzyme mix (3×) and one for the ATP mix (3×). At the start of the run, the robot aspirates 5 μL of ATP mix, makes an air gap inside the tips (3 μl) and aspirates 5 μL of JAK2 mix. The following dispensation into the plates plus 3 cycles of mixing, done by the robot itself, starts the kinase reaction. At this point, the correct concentrations are restored for all the reagents. The robot incubates the plates for 60 minutes at room temperature, and then stops the reaction by pipetting 60 μL of dowex resin suspension into the reaction mix. In order to avoid tip clogging, wide bore tips are used to dispense the resin suspension. Three cycles of mixing are done immediately after the addition of the resin. Another mixing cycle is performed after all the plates are stopped, this time using normal tips: the plates are then allowed to rest for about one hour in order to allow resin sedimentation. At this point, 27 μL of the supernatant are transferred into 384-Optiplates (Perkin-Elmer), with 50 μL of Microscint 40 (Perkin-Elmer); after 5 min of orbital shaking the plates are read on a Perkin-Elmer Top Count radioactivity counter.
Data are analyzed by an internally customized version of the SW package “Assay Explorer” that provides sigmoidal fitting of the ten-dilutions curves for IC50 determination in the secondary assays/hit confirmation routines.

Molecules are shown by their SMILES.

What is called IC50 is the midpoint of a concentration-inhibition curve. Read a low IC50 as greater potency.

T2 sequence (P07948 whole entry): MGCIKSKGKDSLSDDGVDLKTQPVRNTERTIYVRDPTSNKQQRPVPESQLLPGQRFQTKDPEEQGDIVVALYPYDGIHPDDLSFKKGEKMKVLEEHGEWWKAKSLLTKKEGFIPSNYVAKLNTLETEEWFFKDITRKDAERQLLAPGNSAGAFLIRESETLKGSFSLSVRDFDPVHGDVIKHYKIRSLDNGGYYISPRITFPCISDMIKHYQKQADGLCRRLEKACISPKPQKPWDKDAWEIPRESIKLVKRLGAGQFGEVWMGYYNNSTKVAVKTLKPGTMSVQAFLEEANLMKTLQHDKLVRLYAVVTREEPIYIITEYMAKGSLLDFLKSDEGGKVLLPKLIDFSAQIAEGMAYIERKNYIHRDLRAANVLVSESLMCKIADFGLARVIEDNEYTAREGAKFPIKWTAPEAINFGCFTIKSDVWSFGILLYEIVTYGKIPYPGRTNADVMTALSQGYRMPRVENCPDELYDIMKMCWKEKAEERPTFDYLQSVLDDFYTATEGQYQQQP
T1 sequence (O60674 849-1124 limits assumed): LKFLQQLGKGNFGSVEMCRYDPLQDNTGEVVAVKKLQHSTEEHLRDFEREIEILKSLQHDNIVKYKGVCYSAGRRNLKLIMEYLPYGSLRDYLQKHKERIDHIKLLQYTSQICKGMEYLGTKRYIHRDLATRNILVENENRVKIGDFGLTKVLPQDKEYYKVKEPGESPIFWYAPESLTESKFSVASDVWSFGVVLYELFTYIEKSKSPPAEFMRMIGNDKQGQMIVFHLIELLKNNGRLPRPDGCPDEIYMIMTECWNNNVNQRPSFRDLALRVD

As for `Cc1ccc(Cl)cc1-c1[nH]c(-c2nc(N)ncc2C#Cc2cccc(NCCN)c2)cc1C(N)=O` [compound 63, 5-[2-Amino-5-({3-[(2-aminoethyl)amino]phenyl}ethynyl)pyrimidin-4-yl]-2-(5-chloro-2-methylphenyl)-1H-pyrrole-3-carboxamide], the IC50 came to 100 nM in test [1], 3 nM in test [2] and 5 nM in test [3].

Turning to `Cc1ccc(Cl)cc1-c1[nH]c(-c2nc(N)ncc2C#Cc2ccc(CN3CCCC3)cc2)cc1C(N)=O` [compound 66, 5-(2-Amino-5-{[4-(pyrrolidin-1-ylmethyl)phenyl]ethynyl}pyrimidin-4-yl)-2-(5-chloro-2-methylphenyl)-1H-pyrrole-3-carboxamide], the results for the IC50 in test [1], in test [2] and in test [3] were 190 nM, 1 nM and 1 nM, respectively.

As for `Cc1ccc(Cl)cc1-c1[nH]c(-c2nc(N)ncc2C#Cc2ccc(CN3CCCCC3)cc2)cc1C(N)=O` [compound 67, 5-(2-Amino-5-{[4-(piperidin-1-ylmethyl)phenyl]ethynyl}pyrimidin-4-yl)-2-(5-chloro-2-methylphenyl)-1H-pyrrole-3-carboxamide], the results for the IC50 in test [1], in test [2] and in test [3] were 190 nM, 1 nM and 1 nM, respectively.

With `Cc1ccc(Cl)cc1-c1[nH]c(-c2ccnc(N)n2)c(C#Cc2ccccc2)c1C(N)=O` [compound 69, 5-(2-Amino-pyrimidin-4-yl)-2-(5-chloro-2-methyl-phenyl)-4-phenylethynyl-1H-pyrrole-3-carboxamide], the half-inhibitory concentration (IC50) in test [1] stood at 1450 nM; in test [2] it was 8 nM; in test [3], 20 nM.

Take `Cc1ccc(Cl)cc1-c1[nH]c(-c2ccnc(N)n2)c(C#Cc2cccc(N)c2)c1C(N)=O` [compound 72, 4-[(3-Aminophenyl)ethynyl]-5-(2-aminopyrimidin-4-yl)-2-(5-chloro-2-methylphenyl)-1H-pyrrole-3-carboxamide]: the values for the IC50 in test [1], in test [2] and in test [3] were 420 nM, 2 nM and 10 nM, respectively.

With `Cc1ccc(Cl)cc1-c1[nH]c(-c2ccnc(N)n2)c(C#Cc2ccc(N)cc2)c1C(N)=O` [compound 76, 4-[(4-Aminophenyl)ethynyl]-5-(2-amino-pyrimidin-4-yl)-2-(5-chloro-2-methyl-phenyl)-1H-pyrrole-3-carboxamide], the concentration for half-maximal inhibition (IC50) in test [1] was found to be 500 nM; in test [2], 3 nM; in test [3] it was 8 nM.

Regarding `Cc1ccc(Cl)cc1-c1[nH]c(-c2ccnc(N)n2)c(C#Cc2cccc(CN3CCN(C)CC3)c2)c1C(N)=O` [compound 81, 5-(2-Aminopyrimidin-4-yl)-2-(5-chloro-2-methylphenyl)-4-({3-[(4-methylpiperazin-1-yl)methyl]phenyl}ethynyl)-1H-pyrrole-3-carboxamide], the 50% inhibitory concentration (IC50) in test [1] is 540 nM; in test [2], 6 nM; in test [3] it was 3 nM.

For `Cc1ccc(Cl)cc1-c1[nH]c(-c2ccnc(N)n2)c(C#Cc2cccc(NCCN)c2)c1C(N)=O` [compound 82, 4-({3-[(2-Aminoethyl)amino]phenyl}ethynyl)-5-(2-aminopyrimidin-4-yl)-2-(5-chloro-2-methylphenyl)-1H-pyrrole-3-carboxamide], the results for the 50% inhibitory concentration (IC50) in test [1], in test [2] and in test [3] were 290 nM, 7 nM and 11 nM, respectively.

Regarding `Cc1ccc(Cl)cc1-c1[nH]c(-c2ccnc(N)n2)c(C#Cc2ccc(N3CCN(C)CC3)cc2)c1C(N)=O` [compound 83, 5-(2-Aminopyrimidin-4-yl)-2-(5-chloro-2-methylphenyl)-4-{[4-(4-methylpiperazin-1-yl)phenyl]ethynyl}-1H-pyrrole-3-carboxamide], the IC50 came out at 510 nM in test [1], 8 nM in test [2] and 9 nM in test [3].

`COc1ccc(N2CCN(C)CC2)cc1C#Cc1c(-c2ccnc(N)n2)[nH]c(-c2cc(Cl)ccc2C)c1C(N)=O` [compound 86, 5-(2-Aminopyrimidin-4-yl)-2-(5-chloro-2-methylphenyl)-4-{[2-methoxy-5-(4-methylpiperazin-1-yl)phenyl]ethynyl}-1H-pyrrole-3-carboxamide]: the concentration for half-maximal inhibition (IC50) in test [1] is 210 nM; in test [2], 1 nM; in test [3], 1 nM.

The values are drawn from patent US8912200B2, “Alkynyl substituted pyrimidinyl-pyrroles active as kinases inhibitors” (Nerviano Medical Sciences S.R.L., priority 2011, dated 2014).
